What all share (assay): NCI-60 cell line screen, 48 h
For assay [1], the system named is SNB-75.
The subject of assay [2] is TK-10.
The test system of assay [3] is KM12.
The subject of assay [4] is BT-549.
In assay [5] the test system is NCI/ADR-RES.
For assay [6], the system named is ACHN.
The subject of assay [7] is UACC-62.
Assay [8] concerns MCF7.
Assay [9] concerns NCI-H23.
Assay [10] has as its system HCT-15.
The subject of assay [11] is SW-620.
For assay [12], the system named is NCI-H460.
Assay [13] relates to SK-MEL-5.
Assay [14] concerns IGROV-1.
For assay [15], the system named is NCI-H522.
The subject of assay [16] is HL-60.
The test system of assay [17] is HCT-116.
Assay [18] relates to Malme-3M.
Assay [19] relates to OVCAR-4.
Assay [20] has as its system EKVX.

The text below walks through data of ChEMBL document CHEMBL1201862, “PubChem BioAssay data set” (2004).

Each structure is given as a SMILES string.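 The compound was tested at five concentrations on cells cultured in 96-well plates, with a 48-hour exposure period. GI50 is the concentration that inhibits growth by half.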 Activity calls are given as the source filed them. Rule as the data show it: active = GI50 up to about 1.1 µM and inactive = higher. Non-standard residues stand in square brackets, D forms with d. Residues, ends and D or L forms follow the SMILES beside them. *: point of attachment. hSer = N[CH](CCO)C(=O)O; Boc = CC(C)(C)OC(=O)*

As to `Nc1c(OCC(=O)O)ccc2cc(S(=O)(=O)O)ccc12`, the GI50 in [1], in assay [2], in assay [3], in assay [4], in assay [5] and in assay [6] was > 100 µM (inactive) each time. Further, the GI50 in assay [7] was > 100 µM (inactive); in [8] it was > 100 µM (inactive); in [9] it was > 100 µM (inactive); in [10] it was over 100 µM; in assay [11], > 100 µM (inactive); in assay [12], > 100 µM (inactive). Further, the GI50 in assay [13], in assay [14], in assay [15], in [16], in assay [17] and in [18] was > 100 µM (inactive) in each case. Moreover, the GI50 in assay [19] was > 100 µM (inactive).
Regarding `COc1nc(C(=O)NNC(=O)c2nc(OC)c3ccccc3c2-c2ccccc2)c(-c2ccccc2)c2ccccc12`, the GI50 was 96.6 µM (inactive) in assay [1]; > 100 µM (inactive) in assay [2]; > 100 µM (inactive) in assay [20]; > 100 µM (inactive) in [3]; > 100 µM (inactive) in assay [4]; > 100 µM (inactive) in [5]. The GI50 in assay [6] is > 100 µM (inactive); in [7], > 100 µM (inactive); in [8] it was > 100 µM (inactive); in assay [9], > 100 µM (inactive); in [10], over 100 µM; in assay [11] it was > 100 µM (inactive). Further, the GI50 in assay [13], in assay [14], in assay [15], in assay [16], in assay [17] and in assay [18] was > 100 µM (inactive) throughout. For the same compound, the GI50 in assay [19] was > 100 µM (inactive).
For the compound `c1cc(-c2ccc(-c3ccc(C4=NC5CCCCC5N4)cc3)o2)ccc1C1=NC2CCCCC2N1` (configuration not stated), the GI50 in assay [1] is 1.68 µM (inactive); in assay [2], 5.19 µM (inactive); in assay [20], 1.69 µM (inactive); in assay [3], 1.46 µM (inactive); in [4], 2.11 µM (inactive); in assay [5] it was 28.4 µM (inactive). Also, the GI50 in [6] is 2.36 µM (inactive); in assay [7], 1.71 µM (inactive); in assay [8] it was 1.21 µM (inactive); in assay [9] it was 1.58 µM (inactive); in assay [10], 5.19 µM; in assay [11] it was 2.56 µM (inactive). The GI50 is 1.84 µM (inactive) in assay [12]; 1.57 µM (inactive) in assay [13]; 1.61 µM (inactive) in assay [15]; 2.31 µM (inactive) in assay [16]; 1.51 µM (inactive) in assay [17]; 1.73 µM (inactive) in assay [18]. The GI50 in assay [19] is 1.56 µM (inactive).
For the compound `CCOC(=O)c1[nH]c2ccccc2c1C(=O)C[C@H](NC(=O)C(F)(F)F)C(=O)OC`, the GI50 in assay [1] is > 100 µM (inactive); in assay [2] it was > 100 µM (inactive); in assay [20], > 100 µM (inactive); in assay [3] it was > 100 µM (inactive); in assay [4], > 100 µM (inactive); in assay [5], 84.1 µM (inactive). Also, the GI50 in assay [6] is > 100 µM (inactive); in [8], > 100 µM (inactive); in [9], > 100 µM (inactive); in assay [10], over 100 µM; in assay [11], > 100 µM (inactive); in assay [12], 29.3 µM (inactive). The GI50 in assay [13] is > 100 µM (inactive); in assay [14], > 100 µM (inactive); in assay [15], 97.3 µM (inactive); in assay [16] it was > 100 µM (inactive); in assay [17] it was > 100 µM (inactive); in assay [18], > 100 µM (inactive). Moreover, in [19], the GI50 is > 100 µM (inactive).
In the case of `COc1cc(C2SC(=N)Nc3c2c(C)nn3C(=O)c2ccccc2O)ccc1O` (configuration not stated), the GI50 was 1.04 µM (active) in assay [1]; > 2.96 µM (inactive) in assay [2]; > 2.63 µM (inactive) in [20]; > 2.13 µM (inactive) in assay [3]; > 2.63 µM (inactive) in assay [4]; > 2.38 µM (inactive) in assay [5]. Besides, the GI50 is 1.21 µM (inactive) in assay [6]; 1.15 µM (inactive) in assay [7]; > 2.01 µM (inactive) in assay [8]; > 2.3 µM (inactive) in [9]; over 2.31 µM in [10]; > 4.71 µM (inactive) in assay [11]. The GI50 in [12] is 0.317 µM (active); in assay [13], 2.75 µM (inactive); in assay [14], 1.61 µM (inactive); in [15], > 3.84 µM (inactive); in [16], > 2.32 µM (inactive); in assay [18], 0.513 µM (active). Also, the GI50 in assay [19] was > 2.1 µM (inactive).
Take `COCCC(NC(=O)C(CC(C)C)NC(=O)OC(C)(C)C)C(N)=O` (stereo not drawn) (Boc-Leu-[hSer](Me)-NH2; configuration not given here): the GI50 in assay [1], in assay [2], in assay [20], in assay [3], in assay [4] and in [5] was > 100 µM (inactive) in each case. The GI50 in [6] is > 100 µM (inactive); in assay [7] it was > 100 µM (inactive); in assay [8], > 100 µM (inactive); in assay [10] it was over 100 µM; in assay [11] it was > 100 µM (inactive); in [12] it was > 100 µM (inactive). Further, the GI50 in assay [13], in assay [14], in [15], in assay [16], in assay [17] and in assay [18] was > 100 µM (inactive) throughout. The GI50 in assay [19] is > 100 µM (inactive).
Turning to `COc1cc(/C=C2\C(=O)N(c3ccc(Cl)cc3)C(c3ccccc3)S2(=O)=O)cc(OC)c1OC` (configuration not stated), the GI50 in assay [1] is 53.8 µM (inactive); in assay [2], > 63 µM (inactive); in assay [20], 26.8 µM (inactive); in assay [3], 3.72 µM (inactive); in assay [4] it was 14.3 µM (inactive); in assay [5], 12.4 µM (inactive). The GI50 in [7] is 2.19 µM (inactive); in assay [8], 4.61 µM (inactive); in [9], 6.4 µM (inactive); in assay [10], 1.03 µM; in assay [11], 32.2 µM (inactive); in assay [12], 3.95 µM (inactive). The GI50 in [13] is 1.05 µM (active); in assay [15], 14.5 µM (inactive); in assay [16] it was 5.04 µM (inactive); in [17], 3.37 µM (inactive); in assay [18], 42.3 µM (inactive); in assay [19] it was 8.89 µM (inactive).
